Key:
isomerase = target: T1, isomerase (Mus musculus, UniProt Q91ZQ5); assay: In vivo murine isomerase assay (recovery of 11-cis-retinal after photobleaching); set-up: species or system CD-1 (albino) male mice; settings: for % Inhibition 1 mg/kg 4 h / % Inhibition 1 mg/kg 24 h / % Inhibition 5 mg/kg 4 h / % Inhibition 5 mg/kg 24 h: CD1 male mice; for % Inhibition 1 mg/kg 4 h / % Inhibition 1 mg/kg 24 h: single oral dose 1 mg/kg; for % Inhibition 1 mg/kg 4 h / % Inhibition 5 mg/kg 4 h: photobleaching 4 h post dosing; for % Inhibition 1 mg/kg 24 h / % Inhibition 5 mg/kg 24 h: photobleaching 24 h post dosing; for % Inhibition 5 mg/kg 4 h / % Inhibition 5 mg/kg 24 h: single oral dose 5 mg/kg; for ED50: mouse, po, read-out: ED50 (dose of compound that gives 50% inhibition of 11-cis retinal (oxime) recovery), CD-1 male mice, oral gavage, photobleached 4 hours after dosing
T1 construct: The recovery of 11-cis-retinal after bleaching can be used to estimate the activity of isomerase in vivo; from tissue; host or cells: eye (RPE) of living CD-1 albino male mice
T1 sequence (Q91ZQ5 1-533): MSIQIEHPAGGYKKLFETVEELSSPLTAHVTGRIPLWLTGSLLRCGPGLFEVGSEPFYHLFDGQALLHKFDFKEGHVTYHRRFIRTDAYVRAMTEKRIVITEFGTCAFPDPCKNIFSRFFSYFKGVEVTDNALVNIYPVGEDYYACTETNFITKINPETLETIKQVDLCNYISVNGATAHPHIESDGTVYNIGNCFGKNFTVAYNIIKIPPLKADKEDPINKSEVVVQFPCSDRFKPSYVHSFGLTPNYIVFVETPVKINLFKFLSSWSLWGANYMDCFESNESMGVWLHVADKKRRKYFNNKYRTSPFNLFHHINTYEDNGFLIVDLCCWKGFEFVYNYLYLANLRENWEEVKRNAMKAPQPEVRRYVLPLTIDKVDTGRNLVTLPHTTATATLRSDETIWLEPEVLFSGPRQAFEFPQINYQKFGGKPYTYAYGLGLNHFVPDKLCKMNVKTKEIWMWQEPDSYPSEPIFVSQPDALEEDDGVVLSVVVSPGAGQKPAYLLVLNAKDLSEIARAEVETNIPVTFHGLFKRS
Procedure: The capability of amine derivative compounds to inhibit isomerase was determined by an in vivo murine isomerase assay. Brief exposure of the eye to intense light (“photobleaching” of the visual pigment or simply “bleaching”) is known to photo-isomerize almost all 11-cis-retinal in the retina. The recovery of 11-cis-retinal after bleaching can be used to estimate the activity of isomerase in vivo.
Delayed recovery, as represented by lower 11-cis-retinal oxime levels, indicates inhibition of isomerization reaction. Procedures were performed essentially as described by Golczak et al., Proc. Natl. Acad. Sci. USA 102:8162-67 (2005). See also Deigner et al., Science, 244: 968-71 (1989); Gollapalli et al., Biochim Biophys Acta. 1651: 93-101 (2003); Parish, et al., Proc. Natl. Acad. Sci. USA, 14609-13 (1998); Radu, et al., Proc Natl Acad Sci USA 101: 5928-33 (2004).
[…] Mice were orally gavaged with the several of the amine derivative compounds described herein. After 1-48 hours in the dark, the mice were exposed to photobleaching of 5,000 lux of white light for 10 minutes. The mice were allowed to recover 2 hours in the dark. The animals were then sacrificed by carbon dioxide inhalation. Retinoids were extracted from the eye and the regeneration of 11-cis-retinal was assessed at various time intervals.
All steps were performed in darkness with minimal redlight illumination (low light darkroom lights and redfiltered flashlights for spot illumination as needed) (see, e.g., Maeda et al., J. Neurochem 85:944-956, 2003; Van Hooser et al., J Biol Chem 277:19173-82, 2002). After the mice were sacrificed, the eyes were immediately removed and placed in liquid nitrogen for storage.
The eyes were placed in 500 μL of bis-tris propane buffer (10 mM, pH ˜7.3) and 20 μL of 0.8M hydroxylamine (pH˜7.3). The eyes were cut up into small pieces with small iris scissors and then thoroughly homogenized at 30000 rpm with a mechanical homogenizer (Polytron PT 1300 D) in the tube until no visible tissue remained. 500 μL of methanol and 500 μL of heptane were added to each tube. The tubes were attached to a vortexer so that the contents were mixed thoroughly for 15 minutes in room temperature. The organic phase was separated from the aqueous phase by centrifugation for 10 min at 13K rpm, 4° C. 240 μL of the solution from the top layer (organic phase) was removed and transferred to clean 300 μl glass inserts in HPLC vials using glass pipette and the vials were crimped shut tightly.
The samples were analyzed on an Agilent 1100 HPLC system with normal phase column: SILICA (Beckman Coutlier, dp 5 μm, […]). The running method has a flow rate of 1.5 ml/min; solvent components are 15% solvent 1 (1% isopropanol in ethyl acetate), and 85% solvent 2 (100% hexanes). Loading volume for each sample is 100 μl; detection wavelength is 360 nm. The area under the curve for 11-cis retinal oxime was calculated by Agilent Chemstation software and was recorded manually. Data processing was performed using Prizm software.
Positive control mice (no compound administered) were sacrificed fully dark-adapted and the eye retinoids analyzed. Light (bleached) control mice (no compound administered) were sacrificed and retinoids isolated and analyzed immediately after light treatment. The animals were orally gavaged with 1 mg/kg compound, then “photo-bleached” (5000 Lux white light for 10 minutes) at 4, 24 and 48 hours after dosing, and returned to darkness to allow recovery of the 11-cis-retinal content of the eyes. Mice were sacrificed 2 hours after bleaching, eyes were enucleated, and retinoid content was analyzed by HPLC.
A dose response in vivo isomerase inhibition study was performed with several of the amine derivative compounds described herein. Six-week old dark-adapted CD-1 (albino) male mice were orally gavaged with 0.03, 0.1, 0.3, 1 and 3 mg/kg of compound in sterile water as solution, and photobleached 4 hours after dosing. […]

[1] = system: retinoid nuclear receptors (RAR and RxR); assay: Retinoid nuclear receptor activity

Row | SMILES | % Inhibition 1 mg/kg 4 h (isomerase) [%] | % Inhibition 1 mg/kg 24 h (isomerase) [%] | also measured
1 | CCCC(O)(CCC)CCc1cccc(CCCN)c1 [Example 3, 4-(3-(3-aminopropyl)phenethyl)heptan-4-ol] | 36 | 13 | % Inhibition 5 mg/kg 4 h (isomerase): 95%; % Inhibition 5 mg/kg 24 h (isomerase): 0%; ED50 (isomerase; estimated): 2 mg/kg
2 | NCCCc1cccc(CCC2(O)CCCCC2)c1 [Example 7, 1-(3-(3-aminopropyl)phenethyl)cyclohexanol] | 23 | 12 | effects on retinoid nuclear receptors (RAR and RxR) [1]: did not show significant effects
3 | CCCC(O)(CCC)CCc1cccc(OCCN)c1 [Example 9, 4-(3-(2-aminoethoxy)phenethyl)heptan-4-ol] | 12 | 6 | –
4 | NCCOc1cccc(CCC2(O)CCCCCC2)c1 [Example 10, 1-(3-(2-aminoethoxy)phenethyl)cycloheptanol] | 9 | 1 | –
5 | NCCOc1cccc(CCC2(O)CCSCC2)c1 [Example 11, 4-(3-(2-aminoethoxy)phenethyl)tetrahydro-2H-thiopyran-4-ol] | 0 | 0 | –
6 | NCCOc1cccc(CCC2(O)CCCCC2)c1 [Example 12, 1-(3-(2-aminoethoxy)phenethyl)cyclohexanol] | 27 | 12 | effects on retinoid nuclear receptors (RAR and RxR) [1]: did not show significant effects
7 | NCCC(O)c1cccc(CCC2(O)CCCCC2)c1 (stereo not shown) [Example 15, 1-(3-(3-amino-1-hydroxypropyl)phenethyl)cyclohexanol] | – | – | ED50 (isomerase; estimated): 2 mg/kg
8 | NCCC(O)c1cccc(CCC2(O)CCCCCC2)c1 (stereo not shown) [Example 16, 1-(3-(3-amino-1-hydroxypropyl)phenethyl)cycloheptanol] | 6 | 0 | effects on retinoid nuclear receptors (RAR and RxR) [1]: did not show significant effects
9 | NCCC(O)c1cccc(CCC2CCCC2)c1 (stereo not shown) [Example 17, 3-amino-1-(3-(2-cyclopentylethyl)phenyl)propan-1-ol] | 84 | 0 | –
10 | CCCC(O)(CCC)CCc1cccc(C(O)CCN)c1 (stereo not shown) [Example 19, 4-(3-(3-amino-1-hydroxypropyl)phenethyl)heptan-4-ol] | – | – | Inhibition of recovery of 11-cis retinal (oxime), dose dependence (isomerase; 0.03-3 mg/kg oral, 4 hours post dosing): dose related; ED50 (dose of compound that gives 50% inhibition of 11-cis retinal (oxime) recovery) (isomerase; CD-1 male mice, oral gavage, photobleached 4 hours after dosing, estimated): 0.65 mg/kg; ED50 (isomerase; estimated): 0.651 mg/kg

More lines, main results first:

Row | % Inhibition 1 mg/kg 4 h (isomerase) [%] | % Inhibition 1 mg/kg 24 h (isomerase) [%] | SMILES | also measured
11 | 0 | 2 | NCCCc1cccc(CCC2(O)CCCCCC2)c1 [Example 20, 1-(3-(3-aminopropyl)phenethyl)cycloheptanol] | effects on retinoid nuclear receptors (RAR and RxR) [1]: did not show significant effects
12 | 6 | 29 | CCCCCc1cccc(CCCN)c1 [Example 27, 3-(3-pentylphenyl)propan-1-amine] | –
13 | 0 | 0 | CC(C)(C)CCc1cccc(CCCN)c1 [Example 29, 3-(3-(3,3-dimethylbutyl)phenyl)propan-1-amine] | % Inhibition 5 mg/kg 4 h (isomerase): 62%; % Inhibition 5 mg/kg 24 h (isomerase): 0%; ED50 (isomerase; estimated): 4 mg/kg
14 | 0 | – | NCCCc1cccc(CCCCc2ccccc2)c1 [Example 35, 3-(3-(4-phenylbutyl)phenyl)propan-1-amine] | –
